# Data: patent publication US10814018B2, “Isotopically labeled deoxy-glucose and derivatives thereof, compositions comprising them and uses thereof” (HADASIT MEDICAL RESEARCH SERVICE & DEVELOPMENT LTD., priority 2010, dated 2020)
# Assays:
# [1] = rats, intravenous, cited from earlier work
# [2] = T1 of glucose 13C nuclei by inversion recovery pulse sequence (Varian NMR spectrometers, 7 T and 11.8 T); format: physicochemical
# Description: The effect of glucose concentration on the T1 of its carbon positions was investigated at 7 T (FIG. 1A) and at 11.8 T (FIG. 1B) using Varian NMR spectrometers (The Netherlands). [U-^13C6, ^2H7]glucose was obtained from Cambridge Isotopes Laboratories (Andover, Mass., USA). The T1 of [U-^13C6, ^2H7]glucose ^13C's was measured using the inversion recovery pulse sequence. […] The mean difference between the T1s of the two concentrations was 6.9 s (P=2*10^−6, paired t-test) at 7 T. The mean difference in T1 at 11.8 T was 4.5 s (P=4*10^−5, paired t-test). The labels C1α and C1β (FIG. 1-3) mark the two signals of the glucose carbon at position 1 in the α and β anomers. The labels Ciα and Ciβ (FIG. 1-3) mark the two signals of the glucose carbon at position i in the α and β anomers.
# The effect of the magnetic field strength on the T1 of glucose carbons was investigated at 7 T (FIG. 2, solid gray columns) and at 11.8 T (FIG. 2, diagonal pattern columns). [U-^13C6, ^2H7]glucose T1 at 400 mM was measured using the inversion recovery pulse sequence in the two spectrometers. […] The mean difference in T1 between the two fields was 2 s (P=6*10^−4, paired t-test).
# To increase the signal of hyperpolarized deoxy-glucose and hyperpolarized glucose, stable isotope labeling by carbon-13 in all of the carbon positions was used. The effect of direct carbon-13 to carbon-13 bonding on the individual carbon-13 T1s was investigated to study the effect of these added dipolar interactions on T1 relaxation times. To this end, two compounds were investigated (both from Cambridge Isotopes Laboratories): [U-^13C6, ^2H7]glucose (FIG. 3, solid gray columns) and [^2H7]glucose (FIG. 3, diagonal pattern columns), both at 400 mM concentration. The T1 at 11.8 T was measured using the inversion recovery pulse sequence. While both compounds are fully deuterated, in the [U-^13C6, ^2H7]glucose molecule the carbon positions are 99% occupied by ^13C nuclei. In the [^2H7]glucose molecule, only ca. 1.1% of each of the carbon positions are occupied by ^13C nuclei (due to the natural abundance distribution of ^13C). The chance for having two directly bonded ^13C nuclei in this molecule is therefore 0.01% (negligible). Therefore this measurement was indicative of the T1 of singly ^13C labeled glucose. […] Therefore, it was deducted that direct bonding of additional ^13C nuclei led to a decrease in glucose ^13C T1s, due to the additional dipolar interactions.
# [3] = Hyperpolarized glucose carbon-13 images in vivo at 3 T after tail vein bolus; parameters: species or system rats
# Description: Hyperpolarized glucose images were recorded at 3 T in vivo. As depicted in FIG. 5, hyperpolarized [U-^13C6, ^2H7]glucose provided a high signal on carbon-13 images recorded in vivo. Normal rats were anesthetized, and hyperpolarized [U-^13C6, ^2H7]glucose was injected through the tail vein in a bolus of 12 s total duration. Images were recorded at 8, 12, and 20 s from the onset of the bolus injection (i.e. during and after the bolus). […] Arterial hyperpolarized media flow at this time is not likely, as the signal in the kidneys is not yet visible. […] The signal from the injected hyperpolarized media is extremely high with no background signal. At 12 s (FIG. 5B), at the end of the bolus injection, signal intensity in the main vasculature and the heart is still high, with substantial intensity observed in the kidneys (see indicating arrows). At 20 s from bolus initiation (FIG. 5C), signal from the heart is the most intense signal in the image, about 40% higher than signal in the vasculature and 20% higher than signal in the kidneys. Still, signal in the kidneys is clearly observed, as well as signal in other tissues such as the liver (see indicating arrows and color change). The hyperpolarized glucose signal observed in the heart at 20 s from bolus start is more intense than signal in the vasculature and the kidneys. […] In the anaesthetized rat, the only tissue that is expected to actively take up glucose is the myocardium, because under anesthesia it is the only active muscle. […] It is noted that heart anatomy cannot be discerned from these hyperpolarized images since the imaging time (1 s) averaged several heart beats (approximately 6 beats). However, glucose uptake by the myocardium can be determined at short time frames of the order of 20 s using gradient de-phasing of intravoxel moving spins. Using this methodology, hyperpolarized glucose or deoxyglucose signal from capillaries are diminished, while the signal of intracellular hyperpolarized glucose or deoxyglucose are imaged and indicate the level of glucose uptake in the tissue.
# [4] = value taken as a consideration in the simulation; cited from earlier work
structure (smiles),measurement,setting,value
O=CC[C@@H](O)[C@H](O)[C@H](O)CO [2-deoxy-D-glucose],heart rate,"[1]; 0.25, 0.5, and 1 g/Kg",no change
same,respiratory rate,"[1]; 0.25, 0.5, and 1 g/Kg",no change
same,arterial blood pressure,"[1]; 0.25, 0.5, and 1 g/Kg, not in a dose dependent manner",mean decrease
same,death,"[1]; dose of 0.25, 0.5, and 1 g/Kg",No death
"[2H][13C]1(O)O[13C@]([2H])([13C]([2H])([2H])O)[13C@@]([2H])(O)[13C@]([2H])(O)[13C@@]1([2H])O (stereo partly shown) [[U-^13C6, ^2H7]glucose]",mean difference in T1 between the two fields (longer at 7 T),"[2]; 400 mM, 7 T vs 11.8 T, P=6*10^-4, paired t-test",2 s
same,"T1 of glucose, individual values per carbon position and anomer","[2]; 7 T, 400 mM",8 to 13 s
same,mean difference between the T1s of the two concentrations (longer at 400 mM),"[2]; 7 T, 400 mM vs 4.03 M, P=2*10^-6, paired t-test",6.9 s
same,mean difference in T1 between the two concentrations (longer at 400 mM),"[2]; 11.8 T, 400 mM vs 4.03 M, P=4*10^-5, paired t-test",4.5 s
same,T1 of glucose 13Cs shorter than in [2H7]glucose (natural abundance 13C),"[2]; 11.8 T, 400 mM, P=1.4x10^-3, paired t-test",3.3 s
same,signal from the heart higher than signal in the kidneys,[3]; 20 s from bolus initiation,~20%
same,signal from the heart higher than signal in the vasculature,[3]; 20 s from bolus initiation,about 40%
same,signal on carbon-13 images recorded in vivo,"[3]; normal anesthetized rats, tail vein bolus of 12 s",high signal
"CC(=O)C(=O)O [pyruvate, [1-^13C]pyruvate]",T1 of pyruvate,[4],55 s
